These molecules were tested against HDAC2 (Homo sapiens, UniProt Q92769) (assay: HDAC2 fluorescence inhibition assay (tBoc-Lys(Ac)-AMC)).
Chain of HDAC2 (Q92769 with tags, fused parts or gaps): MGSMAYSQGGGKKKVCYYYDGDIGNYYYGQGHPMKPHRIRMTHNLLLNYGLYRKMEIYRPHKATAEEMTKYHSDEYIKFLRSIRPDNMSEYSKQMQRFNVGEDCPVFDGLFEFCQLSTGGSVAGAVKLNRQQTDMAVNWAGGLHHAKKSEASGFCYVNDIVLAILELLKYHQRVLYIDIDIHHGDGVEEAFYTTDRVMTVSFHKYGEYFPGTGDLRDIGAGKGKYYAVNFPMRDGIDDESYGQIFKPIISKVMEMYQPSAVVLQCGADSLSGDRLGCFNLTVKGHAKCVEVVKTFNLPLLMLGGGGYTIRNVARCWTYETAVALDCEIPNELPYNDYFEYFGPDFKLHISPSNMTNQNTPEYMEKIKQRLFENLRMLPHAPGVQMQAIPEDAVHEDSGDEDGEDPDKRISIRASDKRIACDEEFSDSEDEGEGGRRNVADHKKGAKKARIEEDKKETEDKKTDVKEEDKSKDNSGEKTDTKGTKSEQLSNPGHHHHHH
`Nc1ccccc1NC(=O)c1ccc(CN2C(=O)Nc3ccccc3S2(=O)=O)s1` [Example 34, 5-(1,1,3-Trioxo-3,4-dihydro-1H-1λ^6-benzo[1,2,4]thiadiazin-2-ylmethyl)-thiophene-2-carboxylic acid(2-amino-phenyl)-amide] gave an IC50 of 50 to 100 nM. `Nc1ccccc1NC(=O)c1ccc(CN2C(=S)Nc3cc(C(F)(F)F)ccc3S2(=O)=O)cc1` [Example 13, N-(2-Amino-phenyl)-4-(1,1-dioxo-3-thioxo-6-trifluoromethyl-3,4-dihydro-1H-1λ^6-benzo[1,2,4]thiadiazin-2-ylmethyl)-benzamide] was tested, and the IC50 was 50 to 100 nM. Molecule `Nc1ccccc1NC(=O)c1ccc(CN2C(=O)Nc3ccccc3S2(=O)=O)cc1` [Example 1, N-(2-Amino-phenyl)-4-(1,1,3-trioxo-3,4-dihydro-1H-1λ^6-benzo[1,2,4]thiadiazin-2-ylmethyl)-benzamide] has an IC50 of under 50 nM. Molecule `Nc1ccccc1NC(=O)c1ccc(Cn2c(=O)ncc3ccccc32)cc1` [Example 8, N-(2-aminophenyl)-4-((2-oxoquinazolin-1(2H),-yl)methyl)benzamide] has an IC50 of 100 to 500 nM. Molecule `COc1ccc2c(c1)NC(=S)N(Cc1ccc(C(=O)Nc3cc(F)ccc3N)cc1)S2(=O)=O` [Example 19, N-(2-Amino-5-fluoro-phenyl)-4-(6-methoxy-1,1-dioxo-3-thioxo-3,4-dihydro-1H-1λ^6-benzo[1,2,4]thiadiazin-2-ylmethyl)-benzamide] has an IC50 of under 50 nM. With `Nc1ccccc1NC(=O)c1ccc(CN2C(=O)Nc3ccc(-c4ccncc4)cc3S2(=O)=O)cc1` [Example 27, N-(2-Amino-phenyl)-4-(1,1,3-trioxo-7-pyridin-4-yl-3,4-dihydro-1H-1λ^6-benzo[1,2,4]thiadiazin-2-ylmethyl)-benzamide] the IC50 was under 50 nM. Molecule `CN1Cc2ccccc2N(Cc2ccc(C(=O)Nc3ccccc3N)cc2)C1=O` [Example 15, N-(2-Amino-phenyl)-4-(3-methyl-2-oxo-3,4-dihydro-2H-quinazolin-1-ylmethyl)-benzamide] has an IC50 of under 50 nM. Work on `Nc1ccccc1NC(=O)c1ccc(CN2C(=O)Nc3cc(F)ccc3S2(=O)=O)cc1` [Example 17, N-(2-Amino-phenyl)-4-(6-fluoro-1,1,3-trioxo-3,4-dihydro-1H-1λ^6-benzo[1,2,4]thiadiazin-2-ylmethyl)-benzamide] yielded an IC50 of 100 to 500 nM. Molecule `Nc1ccccc1NC(=O)c1ccc(CN2C(=O)Nc3ccc(-c4cncnc4)cc3S2(=O)=O)cc1` [Example 28, N-(2-Amino-phenyl)-4-(1,1,3-trioxo-7-pyrimidin-5-yl-3,4-dihydro-1H-1λ^6-benzo[1,2,4]thiadiazin-2-ylmethyl)-benzamide] has an IC50 of under 50 nM. `Nc1ccccc1NC(=O)c1ccc(CN2C(=O)Nc3ccccc3S2(=O)=O)c(F)c1` [Example 25, N-(2-Amino-phenyl)-3-fluoro-4-(1,1,3-trioxo-3,4-dihydro-1H-1λ^6-benzo[1,2,4]thiadiazin-2-ylmethyl)-benzamide] was tested, and the IC50 was under 50 nM. In the case of `CNC1=Nc2ccccc2S(=O)(=O)N1Cc1ccc(C(=O)Nc2ccccc2N)cc1` [Example 6, N-(2-Amino-phenyl)-4-(3-methylamino-1,1-dioxo-1H-1λ^6-benzo[1,2,4]thiadiazin-2-ylmethyl)-benzamide], the IC50 is reported as 100 to 500 nM. `NC1=Nc2ccccc2S(=O)(=O)N1Cc1ccc(C(=O)Nc2ccccc2N)cc1` [Example 7, 4-(3-Amino-1,1-dioxo-1H-1λ^6-benzo[1,2,4]thiadiazin-2-ylmethyl)-N-(2-amino-phenyl)-benzamide] was tested, and the IC50 was 50 to 100 nM. `Nc1ccccc1NC(=O)c1ccc(CN2C(=O)Nc3ccncc3S2(=O)=O)cc1` [Example 35, N-(2-Amino-phenyl)-4-(1,1,3-trioxo-3,4-dihydro-1H-1λ^6-pyrido[4,3-e][1,2,4]thiadiazin-2-ylmethyl)-benzamide] was tested, and the IC50 was over 500 nM. With `Nc1ccccc1NC(=O)c1ccc(CN2C(=O)Nc3ccc(-c4cccnc4)cc3S2(=O)=O)cc1` [Example 29, N-(2-Amino-phenyl)-4-(1,1,3-trioxo-7-pyridin-3-yl-3,4-dihydro-1H-1λ^6-benzo[1,2,4]thiadiazin-2-ylmethyl)-benzamide] the IC50 was under 50 nM. Molecule `Nc1ccc(F)cc1NC(=O)c1ccc(CN2C(=O)Nc3ccccc3S2(=O)=O)cc1` [Example 22, N-(2-Amino-5-fluoro-phenyl)-4-(1,1,3-trioxo-3,4-dihydro-1H-1λ^6-benzo[1,2,4]thiadiazin-2-ylmethyl)-benzamide] has an IC50 of under 50 nM. Molecule `Nc1ccccc1NC(=O)c1ccc(CN2C(=O)Nc3ccc(-c4ccoc4)cc3S2(=O)=O)cc1` [Example 32] has an IC50 of under 50 nM. For `Nc1ccccc1NC(=O)c1ccc(CN2C(=O)Nc3ccccc3S2(=O)=O)nc1` [Example 24, N-(2-Amino-phenyl)-6-(1,1,3-trioxo-3,4-dihydro-1H-1λ^6-benzo[1,2,4]thiadiazin-2-ylmethyl)-nicotinamide], the IC50 was 50 to 100 nM. With `Nc1ccccc1NC(=O)c1ccc(CN2C(=O)Nc3ccc(Br)cc3S2(=O)=O)cc1` [Example 23, N-(2-Amino-phenyl)-4-(7-bromo-1,1,3-trioxo-3,4-dihydro-1H-1λ^6-benzo[1,2,4]thiadiazin-2-ylmethyl)-benzamide] the IC50 was under 50 nM. For `Nc1ccccc1NC(=O)c1ccc(CN2C(=S)Nc3cc(F)ccc3S2(=O)=O)cc1` [Example 18, N-(2-Amino-phenyl)-4-(6-fluoro-1,1-dioxo-3-thioxo-3,4-dihydro-1H-1λ^6-benzo[1,2,4]thiadiazin-2-ylmethyl)-benzamide], the IC50 was under 50 nM. `CSC1=Nc2ccccc2S(=O)(=O)N1Cc1ccc(C(=O)Nc2ccccc2N)cc1` [Example 5, N-(2-Amino-phenyl)-4-(3-methylsulfanyl-1,1-dioxo-1H-1λ^6-benzo[1,2,4]thiadiazin-2-ylmethyl)-benzamide] showed an IC50 of 100 to 500 nM. For `Nc1ccccc1NC(=O)c1ccc(CN2C(=O)Nc3ccc(-c4ccco4)cc3S2(=O)=O)cc1` [Example 30, N-(2-Amino-phenyl)-4-(7-furan-2-yl-1,1,3-trioxo-3,4-dihydro-1H-1λ^6-benzo[1,2,4]thiadiazin-2-ylmethyl)-benzamide], the IC50 was under 50 nM. Molecule `Nc1ccccc1NC(=O)c1ccc(CN2C(=O)Nc3cc(C(F)(F)F)ccc3S2(=O)=O)cc1` [Example 11, N-(2-Amino-phenyl)-4-(1,1,3-trioxo-6-trifluoromethyl-3,4-dihydro-1H-1λ^6-benzo[1,2,4]thiadiazin-2-ylmethyl)-benzamide] has an IC50 of under 50 nM. `CSC1=Nc2cc(C(F)(F)F)ccc2S(=O)(=O)N1Cc1ccc(C(=O)Nc2ccccc2N)cc1` [Example 16, N-(2-Amino-phenyl)-4-(3-methylsulfanyl-1,1-dioxo-6-trifluoromethyl-1H-1λ6-benzo[1,2,4]thiadiazin-2-ylmethyl)-benzamide] was tested, and the IC50 was over 500 nM. Molecule `CN1Cc2ccccc2N(Cc2ccc(C(=O)Nc3ccccc3N)cc2)C1=S` [Example 33, N-(2-Amino-phenyl)-4-(3-methyl-2-thioxo-3,4-dihydro-2H-quinazolin-1-ylmethyl)-benzamide] has an IC50 of under 50 nM. Molecule `COc1ccc2c(c1)NC(=O)N(Cc1ccc(C(=O)Nc3ccccc3N)cc1)S2(=O)=O` [Example 10, N-(2-Amino-phenyl)-4-(6-methoxy-1,1,3-trioxo-3,4-dihydro-1H-1λ^6-benzo[1,2,4]thiadiazin-2-ylmethyl)-benzamide] has an IC50 of under 50 nM. `COc1ccc2c(c1)NC(=S)N(Cc1ccc(C(=O)Nc3ccccc3N)cc1)S2(=O)=O` [Example 12, N-(2-Amino-phenyl)-4-(6-methoxy-1,1-dioxo-3-thioxo-3,4-dihydro-1H-1λ^6-benzo[1,2,4]thiadiazin-2-ylmethyl)-benzamide] showed an IC50 of under 50 nM. In the case of `Nc1ccccc1NC(=O)c1ccc(CN2C(=O)Nc3ccc(-c4cccs4)cc3S2(=O)=O)cc1` [Example 31, N-(2-Amino-phenyl)-4-(1,1,3-trioxo-7-thiophen-2-yl-3,4-dihydro-1H-1λ^6-benzo[1,2,4]thiadiazin-2-ylmethyl)-benzamide], the IC50 is reported as under 50 nM. In the case of `COc1ccc2c(c1)N=C(SC)N(Cc1ccc(C(=O)Nc3ccccc3N)cc1)S2(=O)=O` [Example 14, N-(2-Amino-phenyl)-4-(6-methoxy-3-methylsulfanyl-1,1-dioxo-1H-1λ6-benzo[1,2,4]thiadiazin-2-ylmethyl)-benzamide], the IC50 is reported as 50 to 100 nM. Molecule `COc1ccc2c(c1)NC(=O)N(Cc1ccc(C(=O)Nc3cc(F)ccc3N)cc1)S2(=O)=O` [Example 20, N-(2-Amino-5-fluoro-phenyl)-4-(6-methoxy-1,1,3-trioxo-3,4-dihydro-1H-1λ6-benzo[1,2,4]thiadiazin-2-ylmethyl)-benzamide] has an IC50 of under 50 nM. In the case of `CCSC1=Nc2ccccc2S(=O)(=O)N1Cc1ccc(C(=O)Nc2ccccc2N)cc1` [Example 9, N-(2-Amino-phenyl)-4-(3-ethylsulfanyl-1,1-dioxo-1H-1λ^6-benzo[1,2,4]thiadiazin-2-ylmethyl)-benzamide], the IC50 is reported as 100 to 500 nM. In the case of `Nc1ccccc1NC(=O)c1ccc(CN2C(=O)NCc3ccccc32)cc1` [Example 3, N-(2-aminophenyl)-4-((2-oxo-3,4-dihydroquinazolin-1(2H),-yl)methyl)benzamide], the IC50 is reported as 100 to 500 nM. `Nc1ccccc1NC(=O)c1ccc(CN2C(=S)Nc3ccccc3S2(=O)=O)cc1` [Example 4, N-(2-Amino-phenyl)-4-(1,1-dioxo-3-thioxo-3,4-dihydro-1H-1λ^6-benzo[1,2,4]thiadiazin-2-ylmethyl)-benzamide] was tested, and the IC50 was under 50 nM. `Nc1ccccc1NC(=O)c1ccc(CN2C(=O)Nc3ncc(Cl)cc3S2(=O)=O)cc1` [Example 21, N-(2-Amino-phenyl)-4-(7-chloro-1,1,3-trioxo-3,4-dihydro-1H-1λ^6-pyrido[2,3-e][1,2,4]thiadiazin-2-ylmethyl)-benzamide] gave an IC50 of under 50 nM. In the case of `Nc1ccccc1NC(=O)c1ccc(CN2C(=O)Nc3ccc(-c4ccsc4)cc3S2(=O)=O)cc1` [Example 26, N-(2-Amino-phenyl)-4-(1,1,3-trioxo-7-thiophen-3-yl-3,4-dihydro-1H-1λ^6-benzo[1,2,4]thiadiazin-2-ylmethyl)-benzamide], the IC50 is reported as under 50 nM. Work on `NC1=NS(=O)(=O)c2ccccc2N1Cc1ccc(C(=O)Nc2ccccc2N)cc1` [Example 2, 4-(3-Amino-1,1-dioxo-1H-1λ^6-benzo[1,2,4]thiadiazin-4-ylmethyl)-N-(2-amino-phenyl)-benzamide] yielded an IC50 of 100 to 500 nM.

From US7642253B2, “Histone deacetylase inhibitors” (Takeda San Diego, Inc., priority 2005, dated 2010)
